# Data taken from patent publication US8012998B2, “Pyrrolidine aryl-ether as NK-3 receptor antagonists” (Hoffmann—LA Roche Inc., priority 2007, dated 2011).
# pKi: −log10 of the molar value.
# Target: T1, human NK3 receptor (Homo sapiens, UniProt P29371)
# T1 construct: expressed in transfected cells; host or cells: HEK293 cells (transient expression), membrane preparation
# T1 sequence (P29371 1-465): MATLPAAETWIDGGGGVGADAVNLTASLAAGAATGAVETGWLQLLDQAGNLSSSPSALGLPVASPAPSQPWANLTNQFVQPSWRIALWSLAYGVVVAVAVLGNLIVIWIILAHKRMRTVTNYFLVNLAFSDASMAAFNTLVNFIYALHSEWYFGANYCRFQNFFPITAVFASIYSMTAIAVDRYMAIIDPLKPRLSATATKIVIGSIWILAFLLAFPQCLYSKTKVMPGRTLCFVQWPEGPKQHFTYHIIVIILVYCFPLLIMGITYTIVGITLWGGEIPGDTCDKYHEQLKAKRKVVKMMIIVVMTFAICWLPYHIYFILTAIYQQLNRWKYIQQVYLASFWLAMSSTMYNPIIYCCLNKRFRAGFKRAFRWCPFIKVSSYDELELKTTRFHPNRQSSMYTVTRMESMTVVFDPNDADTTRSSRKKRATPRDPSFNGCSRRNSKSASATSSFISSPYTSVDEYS
# Assay: [3H]SR142801 competition binding assay (hNK3 receptor binding)
# Settings: [3H]SR142801 radioligand; membranes from HEK293 cells transiently expressing recombinant human NK3 receptor; Ki by Cheng-Prussoff; read-out: KiNK3 h
# Method: [^3H]SR^142801 Competition Binding Assay
# hNK3 receptor binding experiment were performed using [^3H]SR^142801 (Catalog No. TRK1035, specific activity: 74.0 Ci/mmol, Amersham, GE Healthcare UK limited, Buckinghamshire, UK) and membrane isolated from HEK293 cells transiently expressing recombinant human NK3 receptor. After thawing, the membrane homogenates were centrifuged at 48,000×g for 10 min at 4° C., the pellets were resuspended in the 50 mM Tris-HCl, 4 mM MnCl2, 1 μM phosphoramidon, 0.1% BSA binding buffer at pH 7.4 to a final assay concentration of 5 μg protein/well. […] At the end of the incubation, membranes were filtered onto unitfilter (96-well white microplate with bonded GF/C filter preincubated 1 h in 0.3% PEI +0.3% BSA, Packard BioScience, Meriden, Conn.) with a Filtermate 196 harvester (Packard BioScience) and washed 4 times with ice-cold 50 mM Tris-HCl, pH 7.4 buffer. Nonspecific binding was measured in the presence of 10 μM SB222200 for both radioligands. The radioactivity on the filter was counted (5 min) on a Packard Top-count microplate scintillation counter with quenching correction after addition of 45 μl of microscint 40 (Canberra Packard S.A., Zutrich, Switzerland) and shaking for 1 h. Inhibition curves were fitted according to the Hill equation: y=100/(1+(x/IC50)^nH), where nH=slope factor using Excel-fit 4 software (Microsoft). IC50 values were derived from the inhibition curve and the affinity constant (Ki) values were calculated using the Cheng-Prussoff equation Ki=IC50/(1+[L]/KD) where [L] is the concentration of radioligand and KD is its dissociation constant at the receptor, derived from the saturation isotherm. All experiments were performed in duplicate and the mean ± standard error (SEM) of the individual Ki values was calculated.
row,SMILES,pKi
1,"C[C@H](Oc1ccc(C#N)cn1)[C@H]1CN(C(=O)c2ccc(-n3cccn3)nc2)C[C@@H]1c1ccc(Cl)c(Cl)c1 (racemic) [Example 65, 6-{(SR)-1-[(3RS,4SR)-4-(3 ,4-Dichloro-phenyl)-1-(6-pyrazol-1-yl-pyridine-3-carbonyl)-pyrrolidin-3-yl]-ethoxy}-nicotinonitrile]",8.59
2,"C[C@H](Oc1ccc(C#N)cn1)[C@H]1CN(C(=O)c2ccc(S(C)(=O)=O)nc2)C[C@@H]1c1ccc(Cl)c(Cl)c1 (racemic) [Example 66, 6-{(SR)-1-[(3RS,4SR)-4-(3,4-Dichloro-phenyl)-1-(6-methanesulfonyl-pyridine-3-carbonyl)-pyrrolidin-3-yl]-ethoxy}-nicotinonitrile]",8.42
3,"C[C@H](Oc1ccc(C#N)cn1)[C@H]1CN(C(=O)c2ccc(C#N)cc2F)C[C@@H]1c1ccc(Cl)c(Cl)c1 (racemic) [Example 67, 6-{(SR)-1-[(3RS,4SR)-1-(4-Cyano-2-fluoro-benzoyl)-4-(3,4-dichloro-phenyl)-pyrrolidin-3-yl]-ethoxy}-nicotinonitrile]",8.24
4,"Cc1ccc(C(=O)N2C[C@H]([C@H](C)Oc3ccc(C#N)cn3)[C@@H](c3ccc(Cl)c(Cl)c3)C2)cn1 (racemic) [Example 68, 6-{(SR)-1-[(3RS,4SR)-4-(3,4-Dichloro-phenyl)-1-(6-methyl-pyridine-3-carbonyl)-pyrrolidin-3-yl]-ethoxy}-nicotinonitrile]",7.83
5,"C[C@H](Oc1ccc(C#N)cn1)[C@H]1CN(C(=O)c2ccc3[nH]cnc3c2)C[C@@H]1c1ccc(Cl)c(Cl)c1 (racemic) [Example 69, 6-{(SR)-1-[(3RS,4SR)-1-(1H-Benzoimidazole-5-carbonyl)-4-(3,4-dichloro-phenyl)-pyrrolidin-3-yl]-ethoxy}-nicotinonitrile]",7.54
6,"COc1ncc(C(=O)N2C[C@H]([C@H](C)Oc3ccc(C#N)cn3)[C@@H](c3ccc(Cl)c(Cl)c3)C2)cn1 (racemic) [Example 70, 6-{(SR)-1-[(3RS,4SR)-4-(3,4-Dichloro-phenyl)-1-(2-methoxy-pyrimidine-5-carbonyl)-pyrrolidin-3-yl]-ethoxy}-nicotinonitrile]",7.46
7,"C[C@H](Oc1ccc(C#N)cn1)[C@H]1CN(C(=O)c2ccc(-n3ccnc3)nc2)C[C@@H]1c1ccc(Cl)c(Cl)c1 (racemic) [Example 71, 6-{(SR)-1-[(3RS,4SR)-4-(3,4-Dichloro-phenyl)-1-(6-imidazol-1-yl-pyridine-3-carbonyl)-pyrrolidin-3-yl]-ethoxy}-nicotinonitrile]",8.21
8,"C[C@H](Oc1ccc(C#N)cn1)[C@H]1CN(C(=O)c2ccc(C(F)(F)F)nc2)C[C@@H]1c1ccc(Cl)c(Cl)c1 (racemic) [Example 72, 6-{(SR)-1-[(3RS,4SR)-4-(3,4-Dichloro-phenyl)-1-(6-trifluoromethyl-pyridine-3-carbonyl)-pyrrolidin-3-yl]-ethoxy}-nicotinonitrile]",7.68
9,"Cc1cncc(C(=O)N2C[C@H]([C@H](C)Oc3ccc(C#N)cn3)[C@@H](c3ccc(Cl)c(Cl)c3)C2)c1 (racemic) [Example 73, 6-{(SR)-1-[(3RS,4SR)-4-(3,4-Dichloro-phenyl)-1-(5-methyl-pyridine-3-carbonyl)-pyrrolidin-3-yl]-ethoxy}-nicotinonitrile]",8.17
10,"C[C@H](Oc1ccc(C#N)cn1)[C@H]1CN(C(=O)c2cncc(F)c2)C[C@@H]1c1ccc(Cl)c(Cl)c1 (racemic) [Example 74, 6-{(SR)-1-[(3RS,4SR)-4-(3,4-Dichloro-phenyl)-1-(5-fluoro-pyridine-3-carbonyl)-pyrrolidin-3-yl]-ethoxy}-nicotinonitrile]",7.73
11,"C[C@H](Oc1ccc(C#N)cn1)[C@H]1CN(C(=O)c2ccc(F)nc2)C[C@@H]1c1ccc(Cl)c(Cl)c1 (racemic) [Example 75, 6-{(SR)-1-[(3RS,4SR)-4-(3,4-Dichloro-phenyl)-1-(6-fluoro-pyridine-3-carbonyl)-pyrrolidin-3-yl]-ethoxy}-nicotinonitrile]",7.47
12,"C[C@H](Oc1ccc(C#N)cn1)[C@H]1CN(C(=O)c2ccc(OCC(F)(F)F)nc2)C[C@@H]1c1ccc(Cl)c(Cl)c1 (racemic) [Example 76, 6-((SR)-1-{(3RS,4SR)-4-(3,4-Dichloro-phenyl)-1-[6-(2,2,2-trifluoro-ethoxy)-pyridine-3-carbonyl]-pyrrolidin-3-yl}-ethoxy)-nicotinonitrile]",8.46
13,"C[C@H](Oc1ccc(C#N)cn1)[C@H]1CN(C(=O)c2ccnnc2)C[C@@H]1c1ccc(Cl)c(Cl)c1 (racemic) [Example 77, 6-{(SR)-1-[(3RS,4SR)-4-(3,4-Dichloro-phenyl)-1-(pyridazine-4-carbonyl)-pyrrolidin-3-yl]-ethoxy}-nicotinonitrile]",7.48
14,"Cc1cc(C(=O)N2C[C@H]([C@H](C)Oc3ccc(C#N)cn3)[C@@H](c3ccc(Cl)c(Cl)c3)C2)c(Cl)nn1 (racemic) [Example 78, 6-{(SR)-1-[(3RS,4SR)-1-(3-Chloro-6-methyl-pyridazine-4-carbonyl)-4-(3,4-dichloro-phenyl)-pyrrolidin-3-yl]-ethoxy}-nicotinonitrile]",7.57
15,"Cc1ncc(C(=O)N2C[C@H]([C@H](C)Oc3ccc(C(F)(F)F)cn3)[C@@H](c3ccc(Cl)c(Cl)c3)C2)cn1 (racemic) [Example 79, {(3SR,4RS)-3-(3,4-Dichloro-phenyl)-4-[(SR)-1-(5-trifluoromethyl-pyridin-2-yloxy)-ethyl]-pyrrolidin-1-yl}-(2-methyl-pyrimidin-5-yl)-methanone]",7.57
16,"C[C@H](Oc1ccc(C(F)(F)F)cn1)[C@H]1CN(C(=O)c2ccc(-n3cccn3)nc2)C[C@@H]1c1ccc(Cl)c(Cl)c1 (racemic) [Example 80, {(3SR,4RS)-3-(3,4-Dichloro-phenyl)-4-[(SR)-1-(5-trifluoromethyl-pyridin-2-yloxy)-ethyl]-pyrrolidin-1-yl}-(6-pyrazol-1-yl-pyridin-3-yl)-methanone]",8.82
17,"C[C@H](Oc1ccc(C(F)(F)F)cn1)[C@H]1CN(C(=O)c2ccc(Cl)nc2)C[C@@H]1c1ccc(Cl)c(Cl)c1 (racemic) [Example 81, (6-Chloro-pyridin-3-yl)-{(3SR,4RS)-3-(3,4-dichloro-phenyl)-4-[(SR)-1-(5-trifluoromethyl-pyridin-2-yloxy)-ethyl]-pyrrolidin-1-yl}-methanone]",8.32
18,"C[C@H](Oc1ccc(C(F)(F)F)cn1)[C@H]1CN(C(=O)c2ccnc(Cl)c2)C[C@@H]1c1ccc(Cl)c(Cl)c1 (racemic) [Example 82, (2-Chloro-pyridin-4-yl)-{(3SR,4RS)-3-(3,4-dichloro-phenyl)-4-[(SR)-1-(5-trifluoromethyl-pyridin-2-yloxy)-ethyl]-pyrrolidin-1-yl}-methanone]",8.49
19,"Cc1noc(-c2ccc(C(=O)N3C[C@H]([C@H](C)Oc4ccc(C(F)(F)F)cn4)[C@@H](c4ccc(Cl)c(Cl)c4)C3)cc2)n1 (racemic) [Example 83, {(3SR,4RS)-3-(3,4-Dichloro-phenyl)-4-[(SR)-1-(5-trifluoromethyl-pyridin-2-yloxy)-ethyl]-pyrrolidin-1-yl}-[4-(3-methyl-[1,2,4]oxadiazol-5-yl)-phenyl]-methanone]",9.22
20,"C[C@H](Oc1ccc(C(F)(F)F)cn1)[C@H]1CN(C(=O)c2cnc(C3CC3)nc2)C[C@@H]1c1ccc(Cl)c(Cl)c1 (racemic) [Example 85, (2-Cyclopropyl-pyrimidin-5-yl)-{(3SR,4RS)-3-(3,4-dichloro-phenyl)-4-[(SR)-1-(5-trifluoromethyl-pyridin-2-yloxy)-ethyl]-pyrrolidin-1-yl}-methanone]",8.12
21,"CCc1ncc(C(=O)N2C[C@H]([C@H](C)Oc3ccc(C#N)cn3)[C@@H](c3ccc(Cl)c(Cl)c3)C2)cc1C (racemic) [Example 86, 6-{(SR)-1-[(3RS,4SR)-4-(3,4-Dichloro-phenyl)-1-(6-ethyl-5-methyl-pyridine-3-carbonyl)-pyrrolidin-3-yl]-ethoxy}-nicotinonitrile]",8.37
